Active and inactive are the calls of the source. The calls are words filed in the database; no cut-off is given here.
Experiments:
[1] = Displacement of [3H]alpha-BGT from nAChR in Apis mellifera (honeybee) head homogenates; format: tissue-based
[2] = Displacement of [3H]PCP from nAChR in Apis mellifera (honeybee0 head homogenates; format: tissue-based
Apis mellifera = experiment: Displacement of [3H]PCP from nAChR in Apis mellifera (honeybee) head homogenates at 1000 uM; format: tissue-based
Musca domestica [3] = experiment: Insecticidal activity against 3 to 5 day old female Musca domestica (house fly) assessed as compound level causing insect mortality per female applied through intrathoracic injection measured after 24 hr; format: functional
Musca domestica [4] = experiment: Insecticidal activity against 3 to 5 day old female Musca domestica (house fly) assessed as induction of convulsions and paralysis applied through intrathoracic injection measured after 24 hr; format: functional, organism-based
Musca domestica [5] = experiment: Insecticidal activity against 3 to 5 day old female Musca domestica (house fly) assessed as induction of leg tremors at >2 ug/female fly applied topically on notum measured after 24 hr; format: functional, organism-based
Musca domestica [6] = experiment: Insecticidal activity against 3 to 5 day old female Musca domestica (house fly) assessed as compound level causing insect mortality per female applied topically on notum measured after 24 hr; format: functional
Musca domestica [7] = experiment: Insecticidal activity against 3 to 5 day old female Musca domestica (house fly) assessed as induction of anesthetic effect applied topically on notum measured after 24 hr; format: functional, organism-based

SMILES | IC50 [1] [µM] | IC50 [2] [µM] | other results
CSC(C)N1CCN/C1=C\[N+](=O)[O-] (stereo unspecified) | 249 | 336 | –
C[N+]1(C)CCN(c2ccccc2)CC1 [DIMETHYLPHENYLPIPERAZINIUM IODIDE] | 7.35 | 385 | –
CN(C)CCCN1c2ccccc2Sc2ccc(Cl)cc21 [CHLORPROMAZINE] | 151 | 5.8 | –
O=[N+]([O-])/C=C1\NCCN1Cc1ccc(Cl)nc1 | 0.026 | 953 | –
COc1cc2c3cc1Oc1cc(ccc1O)C[C@@H]1c4c(cc(OC)c(O)c4Oc4ccc(cc4)C[C@@H]3N(C)CC2)CC[N+]1(C)C | 3.35 | 0.636 | –
C[N+](C)(C)CCOC(N)=O [CARBACHOL] | 90.1 | > 1000 | inhibition (Apis mellifera): 8.1%
CNC1(C)C2CCC(C2)C1(C)C (stereo unspecified) [MECAMYLAMINE] | 346 | 8.98 | –
c1cncc(C2CCCCN2)c1 (stereo not drawn) [DL-ANABASINE] | 1.98 | 4.99 | –
C/C(=N\C#N)N(C)Cc1ccc(Cl)nc1 [ACETAMIPRID] | 8.83 | 277 | –
O=[N+]([O-])/N=C1\NCCN1Cc1ccc(Cl)nc1 [IMIDACLOPRID] | 1.95 | 386 | LD50 (Musca domestica [3]): 0.553 µg; Activity (Musca domestica [4]): Active
O=C1N(Cc2ccccc2)C2C[S+]3CCCC3C2N1Cc1ccccc1 (stereo unspecified) [TRIMETHAPHAN CAMSYLATE] | 0.798 | 440 | –
O=[N+]([O-])C=C1NCCCS1 | 1360 | 231 | –
CN(C)C1CSSC1 [NEREISTOXIN] | 228 | 30.7 | Activity (Musca domestica [5]): Active; LD50 (Musca domestica [6]): 0.49 µg; Activity (Musca domestica [7]): Active
CN1[C@@H](CC(=O)c2ccccc2)CCC[C@H]1C[C@H](O)c1ccccc1 [LOBELINE] | 4.6 | 158 | –
O=c1cccc2n1C[C@@H]1CNC[C@H]2C1 [CYTISINICLINE] | 0.267 | > 1000 | inhibition (Apis mellifera): 12.6%
CNC1(c2ccccc2Cl)CCCCC1=O (stereo unspecified) [KETAMINE] | 237 | 83.2 | –
c1csc(C2(N3CCCCC3)CCCCC2)c1 [TENOCYCLIDINE] | 1.38 | 0.082 | LD50 (Musca domestica [6]): 25 µg; Activity (Musca domestica [7]): Active
CN1CCC[C@H]1c1cccnc1 [NICOTINE] | 1.55 | 1.14 | LD50 (Musca domestica [6]): 14.8 µg
CCC[C@H]1CCCCN1 [CONIINE] | 166 | 5.56 | –
CN1CCC[C@@H]1c1cccnc1 [R-NICOTINE] | 22.1 | 35 | –
c1ccc(C2(N3CCCCC3)CCCCC2)cc1 [PHENCYCLIDINE] | 2.55 | 0.029 | LD50 (Musca domestica [6]): 18.4 µg; Activity (Musca domestica [7]): Active
CCN(Cc1ccc(Cl)nc1)/C(=C/[N+](=O)[O-])NC [NITENPYRAM] | 61.3 | 27.6 | –

— ChEMBL document CHEMBL3045508, “Pharmacological Characteristics of Insect Nicotinic Acetyicholine Receptor with Its Ion Channel and the Comparison of the Effect of Nicotinoids and Neonicotinoids” (J Pestic Sci, 1995)
